Reference: patent US7163952B2, “Azole compound and medicinal use thereof” (Japan Tobacco Inc., priority 2001, dated 2007)

| melting point | SMILES |
| --- | --- |
| 180 to 181 °C | CC(C)N(Cc1ccc(C(=O)O)cc1)c1nc(-c2ccc(OCc3ccc(Cl)c(Cl)c3)cc2)cs1 [Example 77, 4-((N-(4-(4-(3,4-dichlorobenzyloxy)phenyl)-2-thiazolyl)-N-isopropylamino)methyl)benzoic acid] |
| 215 to 216 °C | CC(C)N(c1ccc(-c2nnn[nH]2)cc1)c1nc(-c2ccc(OCc3ccc(C4CCCCC4)cc3)cc2)cs1 [Example 78, N-(4-(4-(4-cyclohexylbenzyloxy)phenyl)-2-thiazolyl)-N-isopropyl-(4-(1H-tetrazol-5-yl)phenyl)amine] |
| 238 to 239 °C | CC(C)N(Cc1ccc(-c2nnn[nH]2)cc1)c1nc(-c2ccc(OCc3ccc(C4CCCCC4)cc3)cc2)cs1 [Example 79, N-(4-(4-(4-cyclohexylbenzyloxy)phenyl)-2-thiazolyl)-N-isopropyl-(4-(1H-tetrazol-5-yl)benzyl)amine] |
| 221 to 222 °C | CC(C)N(Cc1cccc(-c2nnn[nH]2)c1)c1nc(-c2ccc(OCc3ccc(C4CCCCC4)cc3)cc2)cs1 [Example 80, N-(4-(4-(4-cyclohexylbenzyloxy)phenyl)-2-thiazolyl)-N-isopropyl-(3-(1H-tetrazol-5-yl)benzyl)amine] |
| 230 °C (dec.) | CN(c1ccc(C(=O)O)cc1)c1nc(-c2ccc(OCc3ccc(Cl)c(Cl)c3)cc2)cs1 [Example 89, 4-(N-(4-(4-(3,4-dichlorobenzyloxy)phenyl)-2-thiazolyl)-N-methylamino)benzoic acid] |
| 230 °C (dec.) | CC(C)(c1ccc(C(=O)O)cc1)c1nc(-c2ccc(OCc3ccc(-c4ccccc4)cc3)cc2)cs1 [Example 92, 4-(1-(4-(4-(4-biphenylylmethoxy)phenyl)-2-thiazolyl)-1-methylethyl)benzoic acid] |
| 230 °C (dec.) | O=C(O)c1ccc(Nc2nc(-c3ccc(OCc4ccc(-c5ccccc5)cc4)cc3)cs2)cc1 [Example 95, 4-(4-(4-(4-biphenylylmethoxy)phenyl)-2-thiazolylamino)benzoic acid] |
| 230 °C (dec.) | CN(C)CCN(c1ccc(C(=O)O)cc1)c1nc(-c2ccc(OCc3ccc(Cl)c(Cl)c3)cc2)cs1 [Example 97, 4-(N-(4-(4-(3,4-dichlorobenzyloxy)phenyl)-2-thiazolyl)-N-(2-dimethylaminoethyl)amino)benzoic acid] |
| 230 °C (dec.) | O=C(O)c1ccc(N(CCN2CCCCC2)c2nc(-c3ccc(OCc4ccc(Cl)c(Cl)c4)cc3)cs2)cc1 [Example 98, 4-(N-(4-(4-(3,4-dichlorobenzyloxy)phenyl)-2-thiazolyl)-N-(2-piperidinoethyl)amino)benzoic acid] |
| 193 to 195 °C | CC(C)N(Cc1ccc(C(=O)O)cc1)c1nc(-c2ccc(NS(=O)(=O)c3ccc(Cl)c(Cl)c3)cc2)cs1 [Example 105, 4-((N-(4-(4-(3,4-dichlorobenzenesulfonylamino)phenyl)-2-thiazolyl)-N-isopropylamino)methyl)benzoic acid] |
| 132 to 134 °C | CC(C)N(Cc1ccc(C(=O)O)cc1)c1nc(-c2ccc(NS(=O)(=O)c3ccc(C(F)(F)F)cc3)cc2)cs1 [Example 106, 4-((N-isopropyl-N-(4-(4-(4-trifluoromethylbenzenesulfonylamino)phenyl)-2-thiazolyl)amino)methyl)benzoic acid] |
| 144 to 146 °C | CC(C)N(Cc1ccc(C(=O)O)cc1)c1nc(-c2ccc(N(Cc3ccccc3)Cc3ccccc3)cc2)cs1 [Example 109, 4-((N-(4-(4-dibenzylaminophenyl)-2-thiazolyl)-N-isopropylamino)methyl)benzoic acid] |

The next lines start with the compound.

| SMILES | melting point |
| --- | --- |
| O=C(O)c1ccc(COc2cc(C(=O)O)ccc2Nc2nc(-c3ccc(OCc4ccc(C5CCCCC5)cc4)cc3)cs2)cc1 [Example 74, 3-(4-carboxybenzyloxy)-4-(4-(4-(4-cyclohexylbenzyloxy)phenyl)-2-thiazolylamino)benzoic acid] | 230 °C (dec.) |
| CC(C)N(Cc1cccc(C(=O)O)c1)c1nc(-c2ccc(OCc3ccc(C4CCCCC4)cc3)cc2)cs1 [Example 87, 3-((N-(4-(4-(4-cyclohexylbenzyloxy)phenyl)-2-thiazolyl)-N-isopropylamino)methyl)benzoic acid] | 196 to 197 °C |
| CC(C)N(Cc1ccccc1C(=O)O)c1nc(-c2ccc(OCc3ccc(C4CCCCC4)cc3)cc2)cs1 [Example 88, 2-((N-(4-(4-(4-cyclohexylbenzyloxy)phenyl)-2-thiazolyl)-N-isopropylamino)methyl)benzoic acid] | 259 to 261 °C |
| CC(C)(c1ccc(C(=O)O)cc1)c1nc(-c2ccc(OCc3ccc(Cl)c(Cl)c3)cc2)cs1 [Example 90, 4-(1-(4-(4-(3,4-dichlorobenzyloxy)phenyl)-2-thiazolyl)-1-methylethyl)benzoic acid] | 170 to 172 °C |
| O=C(O)c1ccc(C2(c3nc(-c4ccc(OCc5ccc(C6CCCCC6)cc5)cc4)cs3)CCCC2)cc1 [Example 91, 4-(1-(4-(4-(4-cyclohexylbenzyloxy)phenyl)-2-thiazolyl)cyclopentyl)benzoic acid] | 248 to 251 °C |
| O=C(O)c1ccc(C2(c3nc(-c4ccc(OCc5ccc(Cl)c(Cl)c5)cc4)cs3)CCCCC2)cc1 [Example 93, 4-(1-(4-(4-(3,4-dichlorobenzyloxy)phenyl)-2-thiazolyl)cyclohexyl)benzoic acid] | 168 to 171 °C |
| O=C(O)c1ccc(Nc2nc(-c3ccc(OCc4ccc(Cl)c(Cl)c4)cc3)cs2)cc1 [Example 94, 4-(4-(4-(3,4-dichlorobenzyloxy)phenyl)-2-thiazolylamino)benzoic acid] | 230 °C (dec.) |
| CC(C)N(c1ccc(C(=O)O)cc1)c1nc(-c2ccc(OCc3ccc(Cl)c(Cl)c3)cc2)cs1 [Example 96, 4-(N-(4-(4-(3,4-dichlorobenzyloxy)phenyl)-2-thiazolyl)-N-isopropylamino)benzoic acid] | 236 to 238 °C |
| COCCN(c1ccc(C(=O)O)cc1)c1nc(-c2ccc(OCc3ccc(Cl)c(Cl)c3)cc2)cs1 [Example 99, 4-(N-(4-(4-(3,4-dichlorobenzyloxy)phenyl)-2-thiazolyl)-N-(2-methoxyethyl)amino)benzoic acid] | 175 to 178 °C |
| O=C(O)c1ccc(C2(c3nc(-c4ccc(OCc5ccc(C6CCCCC6)cc5)cc4)cs3)CCCCC2)cc1 [Example 100, 4-(1-(4-(4-(4-cyclohexylbenzyloxy)phenyl)-2-thiazolyl)cyclohexyl)benzoic acid] | 222 to 224 °C |
| O=C(O)c1ccc(C2(c3nc(-c4ccc(OCc5ccc(C6CCCCC6)cc5)cc4)cs3)CCOCC2)cc1 [Example 101, 4-(4-(4-(4-(4-cyclohexylbenzyloxy)phenyl)-2-thiazolyl)tetrahydropyran-4-yl)benzoic acid] | 230 °C (dec.) |
| CC(C)N(Cc1ccc(C(=O)O)cc1)c1nc(-c2ccc(NS(=O)(=O)c3ccc(C(C)(C)C)cc3)cc2)cs1 [Example 104, 4-((N-(4-(4-(4-tert-butylbenzenesulfonylamino)phenyl)-2-thiazolyl)-N-isopropylamino)methyl)benzoic acid] | 178 to 180 °C |
| O=C(O)c1ccc(CN(CC2CCCCC2)c2nc(-c3ccc(N(Cc4ccc(Cl)c(Cl)c4)Cc4ccc(Cl)c(Cl)c4)cc3)cs2)cc1 [Example 117, 4-((N-(4-(4-(bis(3,4-dichlorobenzyl)amino)phenyl)-2-thiazolyl)-N-cyclohexylmethylamino)methyl)benzoic acid] | 120 °C (dec.) |
